Source: US9776965B2, “Pyrrolidin-2-one and piperidin-2-one derivatives as 11-beta hydroxysteroid dehydrogenase inhibitors” (Janssen Pharmaceutica N.V., priority 2004, dated 2017)

Key:
11b-HSD1 [1] = target: T1, 11b-HSD1 (Mus musculus, UniProt P50172); assay: Cellular assay, 11b-HSD1 activity in differentiated 3T3-L1 cells; type: cell-based; conditions: 4 hour pre-incubation; for IC50: read-out: [C2] HSD1 cellular 3T3-L1 Score
T1 construct: Fibroblasts were differentiated into adipocytes; endogenous in cells; host or cells: differentiated 3T3-L1 cells (ATCC-CL-173)
T1 sequence (P50172 whole entry): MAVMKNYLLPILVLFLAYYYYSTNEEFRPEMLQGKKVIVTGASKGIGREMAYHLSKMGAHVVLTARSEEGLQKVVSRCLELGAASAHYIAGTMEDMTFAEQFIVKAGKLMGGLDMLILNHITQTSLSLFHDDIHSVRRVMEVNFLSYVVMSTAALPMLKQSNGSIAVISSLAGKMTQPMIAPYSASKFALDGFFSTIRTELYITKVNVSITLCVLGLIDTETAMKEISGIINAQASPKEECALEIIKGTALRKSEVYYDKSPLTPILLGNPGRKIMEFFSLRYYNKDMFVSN
Method: The effects on 11b-HSD1 activity was measured in differentiated 3T3-L1 cells and rat hepatocytes.
Mouse fibroblast 3T3-L1 cells (ATCC-CL-173) were seeded at a density of 16500 cells/ml in 12 well plates and grown for 7 days in DMEM medium (supplemented with 10% heat inactivated foetal calf serum, 2 mM glutamine and 25 mg gentamycin) at 37 C in a humidified 5% CO2 atmosphere. Medium was refreshed twice a week. Fibroblasts were differentiated into adipocytes at 37 C in a 5% CO2 humidified atmosphere in growth medium containing 2 μg/ml insulin, 55 μg/ml IBMX and 39.2 μg/ml dexamethasone.
Following a 4 hour pre-incubation with test compound, 0.5 μCi ^3H-cortisone or dehydrocorticosterone, was added to the cultures. One hour later, the medium was extracted on Extrelut^3-columns with 15 ml diethyl ether and the extract was analysed by HPLC as described above.
As for the enzymatic assays, the compounds to be tested were taken from a stock solution and tested at a final concentration ranging from […] to 3.10^−9M. From the thus obtained dose response curves, the pIC50 value was calculated and scored as follows; Score 1=pIC50 value<5, Score 2=pIC50 value in the range of 5 to 6, Score 3=pIC50 value>6. Some of the thus obtained results are summarized in the table below (in this table NT stands for Not Tested).

11b-HSD1 [2] = target: 11b-HSD1 (Homo sapiens, UniProt P28845); assay: Enzymatic assay, 11b-HSD1 dependent conversion of cortisone into cortisol (reductase activity); type: biochemical; conditions: recombinant protein, 2 μM cortisone, 45 min at 37 C; for IC50: read-out: [C1] HSD1-prot Reduct Score
11b-HSD1 (Homo sapiens, UniProt P28845), sequence (P28845 whole entry): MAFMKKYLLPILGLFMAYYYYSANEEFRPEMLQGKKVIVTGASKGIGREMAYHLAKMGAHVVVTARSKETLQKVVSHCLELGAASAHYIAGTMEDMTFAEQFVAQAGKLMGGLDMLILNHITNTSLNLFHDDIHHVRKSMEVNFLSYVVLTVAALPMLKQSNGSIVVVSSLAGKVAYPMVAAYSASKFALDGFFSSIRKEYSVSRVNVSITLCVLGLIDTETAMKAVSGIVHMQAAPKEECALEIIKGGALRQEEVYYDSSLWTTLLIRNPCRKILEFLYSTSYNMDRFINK
Method: The effects of compounds on 11b-HSD1 dependent conversion of cortisone into cortisol (reductase activity) was studied in a reaction mixture containing 30 mM Tris-HCl buffer pH 7.2, 180 μM NADPH, 1 mM EDTA, 2 μM cortisone, 1 μl drug and/or solvent and 11 μg recombinant protein in a final volume of 100 μl.
All incubations were performed for 45 min at 37 C in a water bath. The reaction was stopped by adding 100 μl acetonitrile containing 20 μg corticosterone as internal standard. After centrifugation, the product formation was analysed in the supernatant by HPLC on a Hypersyl BDS-C18 column using 0.05 mM ammonium acetate/methanol (50/50) as solvent. In all of the aforementioned assays, the drugs to be tested were taken from a stock solution and tested at a final concentration ranging from […] to 3.10^−9M. From the thus obtained dose response curves, the pIC50 value was calculated and scored as follows; Score 1=pIC50 value<5, Score 2=pIC50 value in the range of 5 to 6, Score 3=pIC50 value>6. (in this table NT stands for Not Tested).

| SMILES | IC50 (11b-HSD1 [1]) [µM] | IC50 (11b-HSD1 [2]) [µM] | [C2] HSD1 cellular 3T3-L1 Score (11b-HSD1 [1]) | [C1] HSD1-prot Reduct Score (11b-HSD1 [2]) |
| --- | --- | --- | --- | --- |
| O=C1C(Cc2ccc(F)cc2Cl)CCN1CCCc1ccccc1 (centres unmarked) [Compound 112] | 1 to 10 | 1 to 10 |  |  |
| O=C1C(Cc2c(Cl)cccc2Cl)CCN1[C@@H](Cc1ccccc1)c1ccccc1 (some centres unmarked) [Compound 102] | > 10 | > 10 |  |  |
| CC[C@@H](c1ccccc1)N1CC[C@H](Cc2c(Cl)cccc2Cl)C1=O [Compound 94] | < 1 | > 10 |  |  |
| COC[C@@H](c1ccccc1)N1CC[C@@H](Cc2c(Cl)cccc2Cl)C1=O [Compound 101] | > 10 | > 10 |  |  |
| CC[C@@]1(Cc2ccccc2C)CCN([C@H](C)c2ccccc2)C1=O [Compound 144] | > 10 | > 10 |  |  |
| COc1ccc(C[C@H]2CCN([C@@H](C)c3ccccc3)C2=O)cc1 [Compound 21] | < 1 | 1 to 10 |  |  |
| C[C@H](c1ccccc1)N1CC[C@H](Cc2cccc(Cl)c2)C1=O [Compound 47] | 1 to 10 | > 10 |  |  |
| Cc1cccc(C)c1CC1CCN(CCc2ccccc2)C1=O (centres unmarked) [Compound 83] | > 10 | < 1 |  |  |
| O=C1C(Cc2ccc(F)cc2F)CCN1CCc1ccccc1 (centres unmarked) [Compound 108] | 1 to 10 | 1 to 10 |  |  |
| COc1cccc(C[C@@H]2CCN([C@@H](C)c3ccccc3)C2=O)c1 [Compound 20] | > 10 | > 10 |  |  |
| Cc1ccccc1CC1CCCN(CCc2ccccc2)C1=O (centres unmarked) [Compound 87] | 1 to 10 | > 10 |  |  |
| Cc1cccc(C)c1C[C@@H]1CCN([C@@H](C)c2ccccc2)C1=O [Compound 76] |  |  | 2 (Score 2=pIC50 value in the range of 5 to 6) | 3 (Score 3=pIC50 value>6) |
| Cc1cccc(C[C@H]2CCN([C@H](C)c3ccccc3)C2=O)c1 [Compound 68] | 1 to 10 | > 10 |  |  |
| Cc1ccccc1CC1CCN(Cc2ccccc2)C1=O (centres unmarked) [Compound 55] | 1 to 10 | > 10 |  |  |
| O=C1[C@H](Cc2c(Cl)cccc2Cl)CCN1[C@H](CO)c1ccccc1 [Compound 105] | < 1 | < 1 |  |  |
| COc1cccc(C[C@H]2CCN([C@@H](C)c3ccccc3)C2=O)c1 [Compound 19] | < 1 | 1 to 10 |  |  |
| O=C1C(Cc2c(Cl)cccc2Cl)CCN1[C@H](Cc1ccccc1)c1ccccc1 (single isomer, unassigned) [Compound 103] | > 10 | > 10 |  |  |
| O=C1[C@@H](Cc2c(Cl)cccc2Cl)CCN1[C@H](CO)c1ccccc1 [Compound 104] | 1 to 10 | > 10 |  |  |
| COC[C@H](c1ccccc1)N1CC[C@@H](Cc2c(Cl)cccc2Cl)C1=O [Compound 99] | < 1 | < 1 |  |  |
| C[C@@H](c1ccccc1)N1CC[C@@H](Cc2ccc3c(c2)OCO3)C1=O [Compound 153] | 1 to 10 | 1 to 10 |  |  |

| SMILES | IC50 (11b-HSD1 [1]) [µM] | IC50 (11b-HSD1 [2]) [µM] | [C2] HSD1 cellular 3T3-L1 Score (11b-HSD1 [1]) | [C1] HSD1-prot Reduct Score (11b-HSD1 [2]) |
| --- | --- | --- | --- | --- |
| C[C@@H](c1ccccc1)N1CC[C@H](CCc2cccc3ccccc23)C1=O [Compound 75] | 1 to 10 | < 1 |  |  |
| COc1cccc(C[C@@H]2CCN([C@H](C)c3ccccc3)C2=O)c1 [Compound 52] | 1 to 10 | > 10 |  |  |
| CC[C@@H](C[C@@H]1CCN([C@@H](C)c2ccccc2)C1=O)c1ccccc1 [Compound 139] | < 1 | < 1 |  |  |
| N#Cc1ccccc1CC1CCN(CCc2ccccc2)C1=O (centres unmarked) [Compound 23] | < 1 | 1 to 10 |  |  |
| COc1cc(CC2CCN(CCc3ccccc3)C2=O)ccc1OCc1ccccc1 (centres unmarked) [Compound 109] | 1 to 10 | > 10 |  |  |
| O=C1C(Cc2c(Cl)cccc2Cl)CCN1CCc1ccc(F)cc1 (centres unmarked) [Compound 81] |  | > 10 | 3 (Score 3=pIC50 value>6) |  |
| C[C@H](c1ccccc1)[C@@H]1CCN([C@@H](C)c2ccccc2)C1=O [Compound 161] | > 10 | 1 to 10 |  |  |
| Cc1ccccc1C[C@]1(C)CCN([C@@H](C)c2ccccc2)C1=O [Compound 142] | 1 to 10 | > 10 |  |  |
| Cc1ccccc1CC1(Cc2ccccc2)CCN([C@@H](C)c2ccccc2)C1=O (mixture of isomers) [Compound 147] | > 10 | > 10 |  |  |
| C[C@H](c1ccccc1)N1CC[C@H](Cc2cccc(Cl)c2Cl)C1=O [Compound 43] | 1 to 10 | 1 to 10 |  |  |
| C[C@@H](c1ccccc1)N1CC[C@@H](Cc2cc3c(cc2Cl)OCO3)C1=O [Compound 155] | < 1 | < 1 |  |  |
| C[C@@H](c1ccccc1)N1CC[C@H](CCc2ccccc2)C1=O [Compound 73] | 1 to 10 | < 1 |  |  |
| CC[C@H](C[C@@H]1CCN([C@@H](C)c2ccccc2)C1=O)c1ccccc1 [Compound 138] | 1 to 10 | 1 to 10 |  |  |
| C[C@@H](C[C@@H]1CCN([C@@H](C)c2ccccc2)C1=O)c1ccccc1 [Compound 134] | < 1 | < 1 |  |  |
| COc1cc(C[C@@H]2CCN([C@@H](C)c3ccccc3)C2=O)ccc1OCc1ccccc1 [Compound 121] | > 10 | > 10 |  |  |
| CO[C@H](C[C@@H]1CCN([C@@H](C)c2ccccc2)C1=O)c1ccccc1 [Compound 156] | 1 to 10 | 1 to 10 |  |  |
| O=C1C(Cc2c(Cl)cccc2Cl)CCN1CCCc1ccccc1 (centres unmarked) [Compound 114] | < 1 | > 10 |  |  |
| CC[C@H](C[C@H]1CCN([C@@H](C)c2ccccc2)C1=O)c1ccccc1 [Compound 140] | < 1 | > 10 |  |  |
| COc1ccccc1C[C@H]1CCN([C@H](C)c2ccccc2)C1=O [Compound 39] | 1 to 10 | > 10 |  |  |
| COc1cccc(C[C@H]2CCN([C@H](C)c3ccccc3)C2=O)c1 [Compound 66] | 1 to 10 | > 10 |  |  |

| SMILES | IC50 (11b-HSD1 [1]) [µM] | IC50 (11b-HSD1 [2]) [µM] | [C2] HSD1 cellular 3T3-L1 Score (11b-HSD1 [1]) | [C1] HSD1-prot Reduct Score (11b-HSD1 [2]) |
| --- | --- | --- | --- | --- |
| CC[C@@H](c1ccccc1)N1CC[C@@H](Cc2c(Cl)cccc2Cl)C1=O [Compound 95] | 1 to 10 | < 1 |  |  |
| CC[C@@H](C[C@H]1CCN([C@@H](C)c2ccccc2)C1=O)c1ccccc1 [Compound 141] | > 10 | < 1 |  |  |
| Cc1ccc(CCN2CCC(Cc3c(Cl)cccc3Cl)C2=O)cc1 (centres unmarked) [Compound 93] | > 10 | > 10 |  |  |
| C[C@@H](c1ccccc1)N1CC[C@H](Cc2cccc(Cl)c2)C1=O [Compound 17] | 1 to 10 | 1 to 10 |  |  |
| C[C@@H](c1ccccc1)N1CC[C@H](CCc2c(F)cccc2Cl)C1=O [Compound 129] | 1 to 10 | 1 to 10 |  |  |
| C[C@@H](c1ccccc1)N1CC[C@H](Cc2cccc(Cl)c2Cl)C1=O [Compound 11] | 1 to 10 | < 1 |  |  |
| COc1ccc(C[C@@H]2CCN([C@@H](C)c3ccccc3)C2=O)cc1 [Compound 22] | 1 to 10 | > 10 |  |  |
| C[C@@H](c1ccccc1)N1CC[C@H]([C@@](C)(O)c2ccc(CCBr)cc2)C1=O [Compound 117] | < 1 | < 1 |  |  |
| CC[C@H](c1ccccc1)N1CC[C@H](Cc2c(Cl)cccc2Cl)C1=O [Compound 96] | > 10 | 1 to 10 |  |  |
| C[C@@H](C[C@H]1CCN([C@@H](C)c2ccccc2)C1=O)c1ccccc1 [Compound 135] | < 1 | > 10 |  |  |
| C[C@@H](c1ccccc1)N1CC[C@H](Cc2ccc3c(c2)OCO3)C1=O [Compound 152] | < 1 | 1 to 10 |  |  |
| COc1cc(C[C@H]2CCN([C@@H](C)c3ccccc3)C2=O)ccc1OCc1ccccc1 [Compound 122] | 1 to 10 | 1 to 10 |  |  |
| C[C@@H](c1ccccc1)N1CC[C@@H]([C@](C)(O)c2ccc(CCBr)cc2)C1=O [Compound 118] | 1 to 10 | > 10 |  |  |
| C[C@H](c1ccccc1)N1CC[C@@H](Cc2c(Cl)cccc2Cl)C1=O [Compound 44] | 1 to 10 | > 10 |  |  |
| O=C1C(Cc2cccc(Cl)c2Cl)CCN1Cc1ccccc1 (centres unmarked) [Compound 58] | 1 to 10 | 1 to 10 |  |  |
| C[C@@H](c1ccccc1)N1CC[C@@H](CCc2cccc3ccccc23)C1=O [Compound 74] | 1 to 10 | 1 to 10 |  |  |
| COc1ccc(CC[C@H]2CCN([C@@H](C)c3ccccc3)C2=O)cc1 [Compound 133] | 1 to 10 | > 10 |  |  |
| Cc1cccc(CC2CCN(Cc3ccccc3)C2=O)c1 (centres unmarked) [Compound 56] | 1 to 10 | > 10 |  |  |
